Measurements: publication PMC9817970 (Cancers, 2022)

Legend:
Assay in all cases: Kinase panel profiling
Type in all cases: biochemical
Conditions in all cases: 10 μM ATP
MRCKa/CDC42BPA = biological target: T1, MRCKa/CDC42BPA (Homo sapiens, UniProt Q5VT25)
T1 construct: purchased Reaction Biology Corp
Experimental: (§1) Kinase panel profiling was conducted by Reaction Biology Corp. (San Diego, CA, USA). A single dose (1.0 μM) of 6r was tested against 371 recombinant human kinases in the presence of 10 μM ATP.

PLK1 = biological target: T2, PLK1 (Homo sapiens, UniProt P53350)
T2 construct: purchased Reaction Biology Corp
Experimental: as §1

ERK5/MAPK7 = biological target: T3, ERK5/MAPK7 (Homo sapiens, UniProt Q13164)
T3 construct: purchased Reaction Biology Corp
Experimental: as §1

EPHA7 = biological target: T4, EPHA7 (Homo sapiens, UniProt Q15375)
T4 construct: purchased Reaction Biology Corp
Experimental: as §1

MEKK6 = biological target: T5, MEKK6 (Homo sapiens, UniProt O95382)
T5 construct: purchased Reaction Biology Corp
Experimental: as §1

HCK = biological target: T6, HCK (Homo sapiens, UniProt P08631)
T6 construct: purchased Reaction Biology Corp
Experimental: as §1

STK22D/TSSK1 = biological target: T7, STK22D/TSSK1 (Homo sapiens, UniProt Q9BXA7)
T7 construct: purchased Reaction Biology Corp
Experimental: as §1

ASK1/MAP3K5 = biological target: T8, ASK1/MAP3K5 (Homo sapiens, UniProt Q99683)
T8 construct: purchased Reaction Biology Corp
Experimental: as §1

ULK2 = biological target: T9, ULK2 (Homo sapiens, UniProt Q8IYT8)
T9 construct: purchased Reaction Biology Corp
Experimental: as §1

MEK1 = biological target: T10, MEK1 (Homo sapiens, UniProt Q02750)
T10 construct: purchased Reaction Biology Corp
Experimental: as §1

ABL2/ARG = biological target: T11, ABL2/ARG (Homo sapiens, UniProt P42684)
T11 construct: purchased Reaction Biology Corp
Experimental: as §1

DCAMKL2 = biological target: T12, DCAMKL2 (Homo sapiens, UniProt Q8N568)
T12 construct: purchased Reaction Biology Corp
Experimental: as §1

LCK2/ICK = biological target: T13, LCK2/ICK (Homo sapiens, UniProt Q9UPZ9)
T13 construct: purchased Reaction Biology Corp
Experimental: as §1

VRK2 = biological target: T14, VRK2 (Homo sapiens, UniProt Q86Y07)
T14 construct: purchased Reaction Biology Corp
Experimental: as §1

CHK1 = biological target: T15, CHK1 (Homo sapiens, UniProt O14757)
T15 construct: purchased Reaction Biology Corp
Experimental: as §1

DCAMKL1 = biological target: T16, DCAMKL1 (Homo sapiens, UniProt O15075)
T16 construct: purchased Reaction Biology Corp
Experimental: as §1

STK39/STLK3 = biological target: T17, STK39/STLK3 (Homo sapiens, UniProt Q9UEW8)
T17 construct: purchased Reaction Biology Corp
Experimental: as §1

PAK2 = biological target: T18, PAK2 (Homo sapiens, UniProt Q13177)
T18 construct: purchased Reaction Biology Corp
Experimental: as §1

CDK19/cyclin C = biological target: T19, CDK19/cyclin C (Homo sapiens, UniProt Q9BWU1)
T19 construct: purchased Reaction Biology Corp
Experimental: as §1

PKCmu/PRKD1 = biological target: T20, PKCmu/PRKD1 (Homo sapiens, UniProt Q15139)
T20 construct: purchased Reaction Biology Corp
Experimental: as §1

PKCiota = biological target: T21, PKCiota (Homo sapiens, UniProt P41743)
T21 construct: purchased Reaction Biology Corp
Experimental: as §1

TRKB = biological target: T22, TRKB (Homo sapiens, UniProt Q16620)
T22 construct: purchased Reaction Biology Corp
Experimental: as §1

p70S6Kb/RPS6KB2 = biological target: T23, p70S6Kb/RPS6KB2 (Homo sapiens, UniProt Q9UBS0)
T23 construct: purchased Reaction Biology Corp
Experimental: as §1

EPHA6 = biological target: T24, EPHA6 (Homo sapiens, UniProt Q9UF33)
T24 construct: purchased Reaction Biology Corp
Experimental: as §1

WNK2 = biological target: T25, WNK2 (Homo sapiens, UniProt Q9Y3S1)
T25 construct: purchased Reaction Biology Corp
Experimental: as §1

MRCKb/CDC42BPB = biological target: T26, MRCKb/CDC42BPB (Homo sapiens, UniProt Q9Y5S2)
T26 construct: purchased Reaction Biology Corp
Experimental: as §1

RAF1 = biological target: T27, RAF1 (Homo sapiens, UniProt P04049)
T27 construct: purchased Reaction Biology Corp
Experimental: as §1

CAMKK1 = biological target: T28, CAMKK1 (Homo sapiens, UniProt Q8N5S9)
T28 construct: purchased Reaction Biology Corp
Experimental: as §1

AKT1 = biological target: T29, AKT1 (Homo sapiens, UniProt P31749)
T29 construct: purchased Reaction Biology Corp
Experimental: as §1

AURORA C = biological target: T30, AURORA C (Homo sapiens, UniProt Q9UQB9)
T30 construct: purchased Reaction Biology Corp
Experimental: as §1

FRK/PTK5 = biological target: T31, FRK/PTK5 (Homo sapiens, UniProt P42685)
T31 construct: purchased Reaction Biology Corp
Experimental: as §1

DMPK = biological target: T32, DMPK (Homo sapiens, UniProt Q09013)
T32 construct: purchased Reaction Biology Corp
Experimental: as §1

MUSK = biological target: T33, MUSK (Homo sapiens, UniProt O15146)
T33 construct: purchased Reaction Biology Corp
Experimental: as §1

GRK1 = biological target: T34, GRK1 (Homo sapiens, UniProt Q15835)
T34 construct: purchased Reaction Biology Corp
Experimental: as §1

CDK2/Cyclin A1 = biological target: T35, CDK2/Cyclin A1 (Homo sapiens, UniProt P24941)
T35 construct: purchased Reaction Biology Corp
Experimental: as §1

BMX/ETK = biological target: T36, BMX/ETK (Homo sapiens, UniProt P51813)
T36 construct: purchased Reaction Biology Corp
Experimental: as §1

NEK9 = biological target: T37, NEK9 (Homo sapiens, UniProt Q8TD19)
T37 construct: purchased Reaction Biology Corp
Experimental: as §1

CAMK2d = biological target: T38, CAMK2d (Homo sapiens, UniProt Q13557)
T38 construct: purchased Reaction Biology Corp
Experimental: as §1

TYRO3/SKY = biological target: T39, TYRO3/SKY (Homo sapiens, UniProt Q06418)
T39 construct: purchased Reaction Biology Corp
Experimental: as §1

RIPK4 = biological target: T40, RIPK4 (Homo sapiens, UniProt P57078)
T40 construct: purchased Reaction Biology Corp
Experimental: as §1

ABL1 = biological target: T41, ABL1 (Homo sapiens, UniProt P00519)
T41 construct: purchased Reaction Biology Corp
Experimental: as §1

FMS = biological target: T42, FMS (Homo sapiens, UniProt P07333)
T42 construct: purchased Reaction Biology Corp
Experimental: as §1

T23 sequence (Q9UBS0 whole entry): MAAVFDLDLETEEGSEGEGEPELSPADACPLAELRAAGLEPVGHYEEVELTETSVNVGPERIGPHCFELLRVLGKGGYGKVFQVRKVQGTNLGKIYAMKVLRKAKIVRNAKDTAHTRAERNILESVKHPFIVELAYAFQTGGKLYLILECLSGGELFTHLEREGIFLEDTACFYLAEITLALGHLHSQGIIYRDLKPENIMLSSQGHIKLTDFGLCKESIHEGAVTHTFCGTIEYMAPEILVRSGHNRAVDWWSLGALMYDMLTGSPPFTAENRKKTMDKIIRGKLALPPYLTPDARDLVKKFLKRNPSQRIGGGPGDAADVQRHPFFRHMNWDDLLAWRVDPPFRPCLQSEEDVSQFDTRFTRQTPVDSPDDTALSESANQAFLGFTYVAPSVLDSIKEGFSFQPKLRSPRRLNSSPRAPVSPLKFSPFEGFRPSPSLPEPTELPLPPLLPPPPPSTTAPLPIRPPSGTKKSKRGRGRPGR
T19 sequence (Q9BWU1 whole entry): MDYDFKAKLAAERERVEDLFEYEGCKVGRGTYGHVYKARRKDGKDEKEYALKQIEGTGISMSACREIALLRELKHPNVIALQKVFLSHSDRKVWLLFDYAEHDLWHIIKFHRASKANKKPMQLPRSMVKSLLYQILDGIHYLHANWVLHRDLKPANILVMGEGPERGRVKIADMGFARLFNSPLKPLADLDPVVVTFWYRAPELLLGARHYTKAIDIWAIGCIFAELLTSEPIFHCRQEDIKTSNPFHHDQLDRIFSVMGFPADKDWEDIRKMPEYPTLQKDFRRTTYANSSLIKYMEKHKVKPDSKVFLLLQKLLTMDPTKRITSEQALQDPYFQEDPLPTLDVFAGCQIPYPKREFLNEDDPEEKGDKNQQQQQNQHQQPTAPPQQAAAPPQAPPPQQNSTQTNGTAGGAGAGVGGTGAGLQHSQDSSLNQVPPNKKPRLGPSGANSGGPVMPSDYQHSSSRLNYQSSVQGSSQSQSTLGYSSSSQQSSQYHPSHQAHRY
T19 sequence (P24863 whole entry partner): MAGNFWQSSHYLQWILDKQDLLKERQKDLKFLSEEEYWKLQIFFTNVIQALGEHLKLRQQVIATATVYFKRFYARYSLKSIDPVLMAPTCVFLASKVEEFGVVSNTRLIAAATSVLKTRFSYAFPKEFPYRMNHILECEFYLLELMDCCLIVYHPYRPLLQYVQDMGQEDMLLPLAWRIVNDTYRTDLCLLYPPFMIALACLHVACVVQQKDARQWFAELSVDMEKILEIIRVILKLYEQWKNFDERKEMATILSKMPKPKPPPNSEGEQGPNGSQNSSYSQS
T33 sequence (O15146 24-869): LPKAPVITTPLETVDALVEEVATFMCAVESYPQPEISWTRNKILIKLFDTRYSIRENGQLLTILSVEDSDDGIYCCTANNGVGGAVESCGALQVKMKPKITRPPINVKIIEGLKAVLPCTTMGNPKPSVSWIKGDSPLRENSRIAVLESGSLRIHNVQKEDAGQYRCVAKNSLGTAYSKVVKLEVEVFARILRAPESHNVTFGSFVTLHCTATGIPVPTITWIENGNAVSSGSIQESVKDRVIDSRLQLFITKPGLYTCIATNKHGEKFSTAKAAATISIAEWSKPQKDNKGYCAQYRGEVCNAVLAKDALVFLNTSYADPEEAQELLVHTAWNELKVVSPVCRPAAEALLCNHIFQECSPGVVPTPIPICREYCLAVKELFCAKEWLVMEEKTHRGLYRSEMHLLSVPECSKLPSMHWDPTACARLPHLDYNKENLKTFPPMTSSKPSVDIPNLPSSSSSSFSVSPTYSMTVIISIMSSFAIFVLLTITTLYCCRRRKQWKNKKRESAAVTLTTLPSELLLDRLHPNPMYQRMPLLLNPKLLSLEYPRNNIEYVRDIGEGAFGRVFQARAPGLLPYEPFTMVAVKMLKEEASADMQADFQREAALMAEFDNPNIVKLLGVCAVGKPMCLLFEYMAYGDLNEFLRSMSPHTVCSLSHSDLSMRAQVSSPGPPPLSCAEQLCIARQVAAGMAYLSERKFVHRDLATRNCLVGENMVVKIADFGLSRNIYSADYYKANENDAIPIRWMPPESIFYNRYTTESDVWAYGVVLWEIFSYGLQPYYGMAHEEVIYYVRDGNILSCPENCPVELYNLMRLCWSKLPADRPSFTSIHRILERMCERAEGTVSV
T20 sequence (Q15139 whole entry): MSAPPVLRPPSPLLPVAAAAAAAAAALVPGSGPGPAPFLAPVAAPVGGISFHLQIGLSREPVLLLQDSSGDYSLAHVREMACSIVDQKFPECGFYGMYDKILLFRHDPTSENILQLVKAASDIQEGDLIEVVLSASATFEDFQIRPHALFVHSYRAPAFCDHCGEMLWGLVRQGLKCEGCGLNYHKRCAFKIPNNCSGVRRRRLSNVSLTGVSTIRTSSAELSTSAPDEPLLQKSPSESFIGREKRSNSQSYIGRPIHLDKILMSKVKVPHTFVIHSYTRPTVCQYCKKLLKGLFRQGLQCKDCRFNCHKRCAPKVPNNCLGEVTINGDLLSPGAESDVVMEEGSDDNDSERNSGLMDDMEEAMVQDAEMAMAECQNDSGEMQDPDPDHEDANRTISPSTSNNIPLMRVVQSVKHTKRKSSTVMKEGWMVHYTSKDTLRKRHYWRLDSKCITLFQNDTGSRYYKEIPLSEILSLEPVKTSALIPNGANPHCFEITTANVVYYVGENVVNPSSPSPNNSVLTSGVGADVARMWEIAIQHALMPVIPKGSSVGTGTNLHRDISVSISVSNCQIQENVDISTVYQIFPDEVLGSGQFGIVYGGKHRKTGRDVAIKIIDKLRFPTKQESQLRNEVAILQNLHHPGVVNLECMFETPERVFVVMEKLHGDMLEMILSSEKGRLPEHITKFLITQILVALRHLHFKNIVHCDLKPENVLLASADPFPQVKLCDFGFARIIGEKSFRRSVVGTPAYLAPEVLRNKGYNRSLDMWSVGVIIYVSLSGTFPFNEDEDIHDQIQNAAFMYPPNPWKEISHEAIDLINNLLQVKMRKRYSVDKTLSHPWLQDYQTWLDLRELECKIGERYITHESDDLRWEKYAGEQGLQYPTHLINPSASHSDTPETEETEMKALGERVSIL
T6 sequence (P08631 whole entry): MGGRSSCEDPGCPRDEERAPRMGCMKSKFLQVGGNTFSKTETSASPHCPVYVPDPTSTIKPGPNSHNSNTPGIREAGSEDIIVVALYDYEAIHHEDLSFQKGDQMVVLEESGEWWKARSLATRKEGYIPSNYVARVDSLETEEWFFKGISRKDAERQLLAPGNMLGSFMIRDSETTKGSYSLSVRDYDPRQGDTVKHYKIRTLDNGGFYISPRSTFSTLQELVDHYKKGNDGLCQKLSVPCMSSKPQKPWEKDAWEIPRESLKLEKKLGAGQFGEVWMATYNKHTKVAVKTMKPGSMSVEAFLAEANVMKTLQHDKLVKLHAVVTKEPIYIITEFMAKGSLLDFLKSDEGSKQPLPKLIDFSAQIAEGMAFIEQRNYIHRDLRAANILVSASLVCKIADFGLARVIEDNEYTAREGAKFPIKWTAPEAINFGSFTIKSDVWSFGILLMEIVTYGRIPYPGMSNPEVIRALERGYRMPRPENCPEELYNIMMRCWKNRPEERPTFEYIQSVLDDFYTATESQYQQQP
T3 sequence (Q13164 whole entry): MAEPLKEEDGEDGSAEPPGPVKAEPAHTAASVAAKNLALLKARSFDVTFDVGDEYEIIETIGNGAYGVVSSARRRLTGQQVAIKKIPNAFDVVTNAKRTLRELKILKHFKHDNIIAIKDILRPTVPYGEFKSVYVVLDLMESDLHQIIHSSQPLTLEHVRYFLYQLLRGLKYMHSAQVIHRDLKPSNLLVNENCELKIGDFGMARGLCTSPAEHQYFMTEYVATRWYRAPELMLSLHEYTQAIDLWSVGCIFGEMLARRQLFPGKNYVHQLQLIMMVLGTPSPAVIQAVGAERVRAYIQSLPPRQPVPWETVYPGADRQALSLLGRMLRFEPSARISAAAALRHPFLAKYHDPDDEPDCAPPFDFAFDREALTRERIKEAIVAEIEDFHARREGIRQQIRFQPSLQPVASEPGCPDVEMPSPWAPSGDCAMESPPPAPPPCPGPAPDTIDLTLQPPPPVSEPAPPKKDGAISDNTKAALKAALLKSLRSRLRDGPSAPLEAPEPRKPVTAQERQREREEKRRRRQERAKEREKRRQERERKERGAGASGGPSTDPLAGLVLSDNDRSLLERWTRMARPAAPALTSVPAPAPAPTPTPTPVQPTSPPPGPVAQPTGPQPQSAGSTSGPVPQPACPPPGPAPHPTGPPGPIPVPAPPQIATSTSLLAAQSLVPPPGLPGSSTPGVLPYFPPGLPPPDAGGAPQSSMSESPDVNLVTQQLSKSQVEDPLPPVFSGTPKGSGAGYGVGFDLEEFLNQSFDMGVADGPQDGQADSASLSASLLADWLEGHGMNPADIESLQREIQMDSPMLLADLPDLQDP
T34 sequence (Q15835 whole entry): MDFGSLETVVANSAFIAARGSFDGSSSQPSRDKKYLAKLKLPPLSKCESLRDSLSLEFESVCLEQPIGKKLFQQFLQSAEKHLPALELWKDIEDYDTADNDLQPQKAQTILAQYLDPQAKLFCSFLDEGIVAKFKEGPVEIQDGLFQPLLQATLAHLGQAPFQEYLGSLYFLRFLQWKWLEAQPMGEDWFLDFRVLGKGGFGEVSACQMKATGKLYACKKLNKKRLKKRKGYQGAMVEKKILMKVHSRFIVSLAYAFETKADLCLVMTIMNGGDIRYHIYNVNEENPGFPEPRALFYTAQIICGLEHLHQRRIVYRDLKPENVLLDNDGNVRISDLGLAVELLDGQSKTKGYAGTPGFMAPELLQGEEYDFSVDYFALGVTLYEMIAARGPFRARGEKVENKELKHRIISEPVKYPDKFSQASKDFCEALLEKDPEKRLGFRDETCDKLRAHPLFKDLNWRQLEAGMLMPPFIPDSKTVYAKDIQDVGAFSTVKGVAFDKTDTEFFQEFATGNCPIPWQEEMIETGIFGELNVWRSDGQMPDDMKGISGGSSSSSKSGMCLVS

For `Cc1ccc(NC(=O)c2ccc(CN3CCN(C)CC3)c(C(F)(F)F)c2)cc1-c1cnc2sc(N)nc2c1` [6r], the inhibition at 1 µM (MRCKa/CDC42BPA) was 0%, the inhibition at 1 µM (PLK1) was 0% and the inhibition at 1 µM (ERK5/MAPK7) was 6.5%. For the same compound, the inhibition at 1 µM (EPHA7) was 40.7%, the inhibition at 1 µM (MEKK6) was 8% and the inhibition at 1 µM (HCK) was 83.1%. For the same compound, the inhibition at 1 µM (STK22D/TSSK1) was 14.9%, the inhibition at 1 µM (ASK1/MAP3K5) was 0% and the inhibition at 1 µM (ULK2) was 0%. It also gave an inhibition at 1 µM (MEK1) of 14.4%, an inhibition at 1 µM (ABL2/ARG) of 87.2% and an inhibition at 1 µM (DCAMKL2) of 0%. It also gave an inhibition at 1 µM (LCK2/ICK) of 60.8%, an inhibition at 1 µM (VRK2) of 20.1% and an inhibition at 1 µM (CHK1) of 9.3%. For the same compound, the inhibition at 1 µM (DCAMKL1) was 1.5%, the inhibition at 1 µM (STK39/STLK3) was 19.2% and the inhibition at 1 µM (PAK2) was 5.4%. For the same compound, the inhibition at 1 µM (CDK19/cyclin C) was 12.8%, the inhibition at 1 µM (PKCmu/PRKD1) was 15.9% and the inhibition at 1 µM (PKCiota) was 8.6%. It also gave an inhibition at 1 µM (TRKB) of 10.6%, an inhibition at 1 µM (p70S6Kb/RPS6KB2) of 34% and an inhibition at 1 µM (EPHA6) of 39.9%. The inhibition at 1 µM (WNK2) was 8.7%, the inhibition at 1 µM (MRCKb/CDC42BPB) was 2.4% and the inhibition at 1 µM (RAF1) was 99.9%. It also gave an inhibition at 1 µM (CAMKK1) of 7.2%, an inhibition at 1 µM (AKT1) of 0% and an inhibition at 1 µM (AURORA C) of 4.9%. It also gave an inhibition at 1 µM (FRK/PTK5) of 98.4%, an inhibition at 1 µM (DMPK) of 0% and an inhibition at 1 µM (MUSK) of 10.8%. The inhibition at 1 µM (GRK1) was 16.7%, the inhibition at 1 µM (CDK2/Cyclin A1) was 7.6% and the inhibition at 1 µM (BMX/ETK) was 31.5%. It also gave an inhibition at 1 µM (NEK9) of 0%, an inhibition at 1 µM (CAMK2d) of 0% and an inhibition at 1 µM (TYRO3/SKY) of 14.6%. The inhibition at 1 µM (RIPK4) was 4.8%, the inhibition at 1 µM (ABL1) was 60.8% and the inhibition at 1 µM (FMS) was 99%.
